25 compounds from US20240368135A1 (VERTEX PHARMACEUTICALS INCORPORATED, priority 2021, published 2024) can be followed below.

In one experiment the target is human NaV 1.8 (Homo sapiens, UniProt Q9Y5Y9). Kind of experiment: E-VIPR assay detecting and measuring NaV inhibition properties. Type of experiment: cell-based. The conditions noted are these: HEK cells expressing truncated human NaV 1.8; in the presence of human serum (compound numbers followed by *); read-out: IC50 in the E-VIPR Assay, performed in the presence of human serum. An outline of the steps: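 Membrane potential was followed by coumarin/oxonol FRET during electrical field stimulation of matrigel-seeded HEK cells carrying truncated human NaV1.8 plus KIR2.1. Dosing used 11 points, 3-fold steps, top 300 nM final, 0.625% DMSO, with or without 25% human serum.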
Sequence of human NaV 1.8 (Q9Y5Y9 126-399 limits assumed): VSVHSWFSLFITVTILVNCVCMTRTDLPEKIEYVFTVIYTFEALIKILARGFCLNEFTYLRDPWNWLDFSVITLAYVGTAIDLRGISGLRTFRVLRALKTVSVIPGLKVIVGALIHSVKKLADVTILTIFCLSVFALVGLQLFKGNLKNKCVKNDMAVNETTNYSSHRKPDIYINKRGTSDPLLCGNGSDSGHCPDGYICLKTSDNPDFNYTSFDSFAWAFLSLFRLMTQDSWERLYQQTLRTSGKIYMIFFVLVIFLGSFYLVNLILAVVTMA
Sequence of human NaV 1.8 (Q9Y5Y9 660-890 limits assumed): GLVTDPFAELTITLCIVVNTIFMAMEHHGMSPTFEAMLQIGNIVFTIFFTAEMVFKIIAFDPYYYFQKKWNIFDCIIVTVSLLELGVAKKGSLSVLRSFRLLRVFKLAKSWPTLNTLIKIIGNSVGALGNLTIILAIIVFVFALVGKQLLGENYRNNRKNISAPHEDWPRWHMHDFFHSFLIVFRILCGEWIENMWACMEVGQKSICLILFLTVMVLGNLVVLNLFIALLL
Sequence of human NaV 1.8 (Q9Y5Y9 1148-1722 limits assumed): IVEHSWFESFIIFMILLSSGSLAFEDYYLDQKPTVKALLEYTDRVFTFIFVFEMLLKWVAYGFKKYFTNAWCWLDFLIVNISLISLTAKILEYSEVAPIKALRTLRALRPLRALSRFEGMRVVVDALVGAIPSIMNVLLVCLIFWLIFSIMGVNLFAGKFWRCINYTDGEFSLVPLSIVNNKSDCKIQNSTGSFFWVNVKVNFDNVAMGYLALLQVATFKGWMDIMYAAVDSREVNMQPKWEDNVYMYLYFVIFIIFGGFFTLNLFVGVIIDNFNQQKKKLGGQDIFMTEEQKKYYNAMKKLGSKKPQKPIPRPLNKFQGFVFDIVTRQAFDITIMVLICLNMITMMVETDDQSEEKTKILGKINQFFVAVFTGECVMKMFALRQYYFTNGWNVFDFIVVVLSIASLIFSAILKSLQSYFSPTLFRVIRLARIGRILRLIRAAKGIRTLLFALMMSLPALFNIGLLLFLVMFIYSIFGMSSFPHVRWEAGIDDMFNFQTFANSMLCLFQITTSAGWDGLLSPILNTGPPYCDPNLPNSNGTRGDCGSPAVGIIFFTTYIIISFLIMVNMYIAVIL
The IC50 is the point on the concentration scale where inhibition reaches its midpoint. As for `CCOc1c(C2CC(C)(C(F)(F)F)OC2C(=O)Nc2ccn3c(OC)nnc3c2)ccc(F)c1F` (stereo not shown) [Compound 708], the IC50 is 100 to 1000 nM.

Staying with this experiment, now noted: HEK cells expressing truncated human NaV 1.8; no human serum; read-out: IC50 in the E-VIPR Assay.
Consider `COc1c([C@H]2[C@H](C(=O)Nc3ccnc(C[C@H](O)CO)c3)O[C@@](C)(C(F)(F)F)[C@H]2C)ccc(F)c1F` [Compound 333, (2R,3S,4S,5R)-3-(3,4-difluoro-2-methoxy-phenyl)-N-[2-[(2S)-2,3-dihydroxypropyl]-4-pyridyl]-4,5-dimethyl-5-(trifluoromethyl)tetrahydrofuran-2-carboxamide], for which the IC50 was < 10 nM.
`COc1c([C@@H]2[C@@H](C(=O)Nc3ccnc(C(=O)O)c3)O[C@](C)(C(F)(F)F)[C@@H]2C)ccc(F)c1C(F)F` (single isomer, unassigned) [Compound 175]: the IC50 was in the range of 100 to 1000 nM.
Take `COCCOc1cc(NC(=O)[C@@H]2O[C@@](C)(C(F)(F)F)[C@@H](C)[C@H]2c2ccc(F)c(F)c2OCCO)ccn1` [Compound 567, (2R,3S,4S,5R)-3-(3,4-difluoro-2-(2-hydroxyethoxy)phenyl)-N-(2-(2-methoxyethoxy)pyridin-4-yl)-4,5-dimethyl-5-(trifluoromethyl)tetrahydrofuran-2-carboxamide]: the IC50 is < 10 nM.
As to `C[C@H]1[C@@H](c2ccc(F)c(F)c2OC(F)F)[C@H](C(=O)Nc2ccnc(CC(C)(C)O)c2)O[C@@]1(C)C(F)(F)F` (single isomer, unassigned) [Compound 464], the IC50 is 10 to 100 nM.
`COc1c([C@H]2[C@H](C(=O)Nc3cnc(C(F)CO)nc3)O[C@@](C)(C(F)(F)F)[C@H]2C)ccc(F)c1F` (stereo partly drawn) [Compound 446, (2R,3S,4S,5R)-3-(3,4-difluoro-2-methoxy-phenyl)-N-[2-(1-fluoro-2-hydroxy-ethyl)pyrimidin-5-yl]-4,5-dimethyl-5-(trifluoromethyl)tetrahydrofuran-2-carboxamide]: the IC50 was in the range of 10 to 100 nM.
Take `COc1c([C@H]2[C@H](C(=O)Nc3cc(C4CN(C)CCO4)ncc3F)O[C@@](C)(C(F)(F)F)[C@H]2C)ccc(F)c1F` (single isomer, unassigned) [Compound 366, rel-(2R*,3S*,4S*,5R*)-3-(3,4-difluoro-2-methoxyphenyl)-N-(5-fluoro-2-(4-methylmorpholin-2-yl)pyridin-4-yl)-4,5-dimethyl-5-(trifluoromethyl)tetrahydrofuran-2-carboxamide]: the IC50 was < 10 nM.
The same measure, in the same setting: in the case of `COc1c([C@H]2[C@H](C(=O)Nc3ccnc(CO)n3)O[C@@](C)(C(F)(F)F)[C@H]2C)ccc(F)c1F` [Compound 381, (2R,3S,4S,5R)-3-(3,4-difluoro-2-methoxyphenyl)-N-(2-(hydroxymethyl)pyrimidin-4-yl)-4,5-dimethyl-5-(trifluoromethyl)tetrahydrofuran-2-carboxamide] it was 10 to 100 nM; in that of `CNc1ccc(NC(=O)[C@@H]2O[C@@](C)(C(F)(F)F)[C@@H](C)[C@H]2c2ccc(F)c(F)c2OC)cn1` [Compound 524, (2R,3S,4S,5R)-3-(3,4-difluoro-2-methoxy-phenyl)-4,5-dimethyl-N-[6-(methylamino)-3-pyridyl]-5-(trifluoromethyl)tetrahydrofuran-2-carboxamide], 10 to 100 nM.
As for `C[C@H]1[C@@H](c2ccc(F)c(F)c2OCC2(F)COC2)[C@H](C(=O)Nc2ccnc(CO)c2)O[C@@]1(C)C(F)(F)F` [Compound 645, (2R,3S,4S,5R)-3-(3,4-difluoro-2-((3-fluorooxetan-3-yl)methoxy)phenyl)-N-(2-(hydroxymethyl)pyridin-4-yl)-4,5-dimethyl-5-(trifluoromethyl)tetrahydrofuran-2-carboxamide], the IC50 lay in the range of 10 to 100 nM.
As for `COc1c([C@H]2[C@H](C(=O)Nc3ccc(C(=O)O)nc3)O[C@@](C)(C(F)(F)F)[C@H]2C)ccc(F)c1F` [Compound 19, 5-[[(2R,3S,4S,5R)-3-(3,4-difluoro-2-methoxy-phenyl)-4,5-dimethyl-5-(trifluoromethyl)tetrahydrofuran-2-carbonyl]amino]pyridine-2-carboxylic acid], the 50% inhibitory concentration (IC50) is < 10 nM.
As for `COc1c(C2C(C(=O)Nc3ccnc(C(O)CF)c3)OC(C)(C(F)(F)F)C2C)ccc(F)c1F` (single isomer, unassigned) [Compound 252, rel-(2R*,3S*,4S*,5R*)-3-(3,4-difluoro-2-methoxyphenyl)-N-(2-(2-fluoro-1-hydroxyethyl)pyridin-4-y1)-4,5-dimethyl-5-(trifluoromethyl)tetrahydrofuran-2-carboxamide], the IC50 was < 10 nM.
The same measure, in the same setting: for `Cc1nn(C2COC2)cc1NC(=O)[C@@H]1O[C@@](C)(C(F)(F)F)[C@@H](C)[C@H]1c1ccc(F)c(F)c1OCCN1CCOCC1` [Compound 594, (2R,3S,4S,5R)-3-(3,4-difluoro-2-(2-morpholinoethoxy)phenyl)-4,5-dimethyl-N-(3-methyl-1-(oxetan-3-yl)-1H-pyrazol-4-yl)-5-(trifluoromethyl)tetrahydrofuran-2-carboxamide] the value was 100 to 1000 nM; for `COc1c([C@H]2[C@H](C(=O)Nc3ccc(NS(C)(=O)=O)nc3)O[C@@](C)(C(F)(F)F)[C@H]2C)ccc(F)c1F` [Compound 526, (2R,3S,4S,5R)-3-(3,4-difluoro-2-methoxy-phenyl)-N-[6-(methanesulfonamido)-3-pyridyl]-4,5-dimethyl-5-(trifluoromethyl)tetrahydrofuran-2-carboxamide], 10 to 100 nM.
Same read-out and setting: for `COc1c([C@@H]2[C@H](C)[C@H](C)O[C@H]2C(=O)Nc2ccnc(C(O)CO)c2)ccc(F)c1F` (relative stereo) [Compound 718, rel-(2R,3S,4S,5S)-3-(3,4-difluoro-2-methoxyphenyl)-N-(2-(1,2-dihydroxyethyl)pyridin-4-yl)-4,5-dimethyltetrahydrofuran-2-carboxamide] the value was 100 to 1000 nM; for `COc1c([C@H]2[C@H](C(=O)Nc3ccnc(N4C(=O)[C@@H]5C[C@H]4CN5)c3)O[C@@](C)(C(F)(F)F)[C@H]2C)ccc(F)c1F` [Compound 483, (2R,3S,4S,5R)-3-(3,4-difluoro-2-methoxyphenyl)-4,5-dimethyl-N-(2-((1S,4S)-3-oxo-2,5-diazabicyclo[2.2.1]heptan-2-yl)pyridin-4-yl)-5-(trifluoromethyl)tetrahydrofuran-2-carboxamide], 10 to 100 nM; for `COc1c([C@H]2[C@H](C(=O)Nc3cncn3C)O[C@@](C)(C(F)(F)F)[C@H]2C)ccc(F)c1F` [Compound 313, (2R,3S,4S,5R)-3-(3,4-difluoro-2-methoxyphenyl)-4,5-dimethyl-N-(1-methyl-1H-imidazol-5-yl)-5-(trifluoromethyl)-tetrahydrofuran-2-carboxamide], 10 to 100 nM.
Still for that read-out and setting: in the case of `COc1c([C@H]2[C@H](C(=O)Nc3cn(C)cn3)O[C@@](C)(C(F)(F)F)[C@H]2C)ccc(F)c1F` [Compound 318, (2R,3S,4S,5R)-3-(3,4-difluoro-2-methoxyphenyl)-4,5-dimethyl-N-(1-methyl-1H-imidazol-4-yl)-5-(trifluoromethyl)-tetrahydrofuran-2-carboxamide] it was ≥ 1000 nM; in that of `Cc1nocc1NC(=O)[C@@H]1O[C@@](C)(C(F)(F)F)[C@@H](C)[C@H]1c1ccc(F)c(F)c1OCCO` [Compound 558, (2R,3S,4S,5R)-3-(3,4-difluoro-2-(2-hydroxyethoxy)phenyl)-4,5-dimethyl-N-(3-methylisoxazol-4-yl)-5-(trifluoromethyl)tetrahydrofuran-2-carboxamide], < 10 nM.
As to `COc1nc(C(F)F)ccc1[C@@H]1[C@@H](C(=O)Nc2ccc(C(N)=O)nc2)O[C@](C)(C(F)(F)F)[C@@H]1C` (stereo in doubt) [Compound 735, rel-5-((2S,3R,4R,5S)-3-(6-(difluoromethyl)-2-methoxypyridin-3-yl)-4,5-dimethyl-5-(trifluoromethyl)tetrahydrofuran-2-carboxamido)picolinamide], the IC50 was ≥ 1000 nM.
As for `C[C@H]1[C@@H](c2ccc(F)c(F)c2OCCO)[C@H](C(=O)Nc2ccc(C(N)=O)nc2)O[C@@]1(C)C(F)(F)F` [Compound 615, 5-((2R,3S,4S,5R)-3-(3,4-difluoro-2-(2-hydroxyethoxy)phenyl)-4,5-dimethyl-5-(trifluoromethyl)tetrahydrofuran-2-carboxamido)picolinamide], the IC50 is 10 to 100 nM.
As to `COc1c([C@H]2[C@H](C(=O)Nc3ccnc(N(C)C)c3)O[C@@](C)(C(F)(F)F)[C@H]2C)ccc(F)c1F` [Compound 320, (2R,3S,4S,5R)-3-(3,4-difluoro-2-methoxyphenyl)-N-(2-(dimethylamino)-pyridin-4-yl)-4,5-dimethyl-5-(trifluoromethyl)-tetrahydrofuran-2-carboxamide], the IC50 lay in the range of 10 to 100 nM.
Still for that read-out and setting: in the case of `CNC(COC)c1ccc(NC(=O)[C@@H]2O[C@@](C)(C(F)(F)F)[C@@H](C)[C@H]2c2ccc(F)c(F)c2OC)cn1` (single isomer, unassigned) [Compound 414, rel-(2R*,3S*,4S*,5R*)-3-(3,4-difluoro-2-methoxyphenyl)-N-(6-(2-methoxy-1-(methylamino)ethyl)-pyridin-3-yl)-4,5-dimethyl-5-(trifluoromethyl)-tetrahydrofuran-2-carboxamide] it was 100 to 1000 nM; in that of `COc1c([C@@H]2C[C@](C)(C(F)(F)F)O[C@H]2C(=O)Nc2ccnc([C@H](O)CO)c2)ccc(F)c1C` (single isomer, unassigned) [Compound 704], 10 to 100 nM; in that of `COCC(c1cc(NC(=O)[C@@H]2O[C@@](C)(C(F)(F)F)[C@@H](C)[C@H]2c2ccc(F)c(F)c2OC)ccn1)N(C)C` (single isomer, unassigned) [Compound 424, rel-(2R*,3S*,4S*,5R*)-3-(3,4-difluoro-2-methoxyphenyl)-N-(2-(1-(dimethylamino)-2-methoxyethyl)pyridin-4-yl)-4,5-dimethyl-5-(trifluoromethyl)-tetrahydrofuran-2-carboxamide], < 10 nM.
